Assay results published in ChEMBL document CHEMBL1125787, “Synthesis and anti-HIV-1 activity of 4,5,6,7-tetrahydro-5-methylimidazo[4,5,1-jk][1,4]benzodiazepin-2(1H)-on e (TIBO) derivatives. 2” (J Med Chem, 1991).

System: MT4
Experiment: Ability to block replication of HIV-1 virus in MT-4 cells
Details: Homo sapiens

| SMILES | IC50 |
| --- | --- |
| CC(C)=CCN1Cc2cccc3nc(Sc4ccccc4)n(c23)CC1C (stereo unspecified) | > 50 µM |
| CC1Cn2c(O)nc3cc(Cl)cc(c32)CN1CCC1CC1 (stereo unspecified) | 2.2 µM |
| CC1CN2C(=O)CNc3cc(Cl)cc(c32)CN1CC1CC1 (stereo unspecified) | > 10 µM |
| C=C(C)CN1Cc2cccc3nc(S)n(c23)CC1C (stereo unspecified) | 0.026 µM |
| CC1Cn2c(S)nc3cc(Cl)cc(c32)CN1CCC1CC1 (stereo unspecified) | 0.42 µM |
| CCCN1Cc2cccc3nnn(c23)CC1C (stereo unspecified) | > 10 µM |
| C=C(C)CN1Cc2cccc3ncn(c23)CC1C (stereo unspecified) | > 2 µM |
| COc1nc2cccc3c2n1CC(C)N(CC=C(C)C)C3 (stereo unspecified) | > 250 µM |
| CC(C)=CCN1Cc2cccc3nc(O)n(c23)CC1C (stereo unspecified) | 9.8 µM |
| C=CCn1c(=O)n2c3c(cccc31)CN(CCC)C(C)C2 (stereo unspecified) | > 50 µM |
| C=C(C)CN1Cc2cccc3c2C(CC1C)C(S)=N3 (stereo unspecified) | > 10 µM |
| CCCN1Cc2cccc3[nH]c(=O)c(=O)n(c23)CC1C (stereo unspecified) | > 250 µM |
| Cc1cn([C@H]2C[C@H](N=[N+]=[N-])[C@@H](CO)O2)c(=O)[nH]c1=O [ZIDOVUDINE] | 0.004 µM |
| CC(C)=CCN1Cc2cc(Cl)cc3[nH]c(=O)n(c23)C[C@@H]1C | 0.18 µM |
| O=c1[nH]cnc2c1ncn2[C@H]1CC[C@@H](CO)O1 [DIDANOSINE] | 5.5 µM |
| CCCN1Cc2cccc3c2n(c(=O)n3CC#N)CC1C (stereo unspecified) | > 250 µM |
| CC(C)=CCN1Cc2cccc3nc(N(C)C)n(c23)CC1C (stereo unspecified) | > 250 µM |
| CC1Cn2c(O)nc3cc(Cl)cc(c32)CN1CC1CCC1 (stereo unspecified) | 0.38 µM |
| CC(C)=CCN1Cc2cccc3[nH]c(=S)n(c23)C[C@@H]1C | 0.097 µM |
| COC(=O)Nc1nc2cc(Cl)cc3c2n1C[C@@H](C)N(CC=C(C)C)C3 | > 10 µM |
| CC1Cn2c(=O)oc3cccc(c32)CN1CC1CCC1 (stereo unspecified) | > 2 µM |
| CCCN1Cc2cccc3[nH]cc(c23)CC1C (stereo unspecified) | > 250 µM |
| CC1Cn2c(S)nc3cc(Cl)cc(c32)CN1CC1CCC1 (stereo unspecified) | 0.026 µM |

| SMILES | IC50 |
| --- | --- |
| C=C(C)CN1Cc2cccc3[nH]c(=O)n(c23)CC1C (stereo unspecified) | 15.2 µM |
| CC(C)=CCN1Cc2cc(Cl)cc3nc(S)n(c23)C[C@H]1C | 0.39 µM |
| C=C(C)CN1Cc2cccc3c2C(CC1C)C(=O)N3 (stereo unspecified) | > 50 µM |
| CCCN1Cc2cccc3[nH]c(=S)n(c23)CC1C (stereo unspecified) | 1.7 µM |
| CCCN1Cc2cccc3[nH]c(=O)n(c23)CC1C (stereo unspecified) | 60 µM |
| CCCN1Cc2cccc3[nH]c(Cl)c(c23)CC1C (stereo unspecified) | > 50 µM |
| C/N=C(/S)N1CC(C)N(CC2CC2)Cc2cc(Cl)ccc21 (stereo unspecified) | > 10 µM |
| CC1CN2c3c(cc(Cl)cc3NS2(=O)=O)CN1CC1CC1 (stereo unspecified) | > 10 µM |
| CC(C)=CCN1Cc2cc(Cl)cc3nc([SeH])n(c23)CC1C (stereo unspecified) | 0.018 µM |
| CNc1nc2cccc3c2n1CC(C)N(CC=C(C)C)C3 (stereo unspecified) | > 250 µM |
| CC1Cn2c(N=C(N)N)nc3cc(Cl)cc(c32)CN1CC1CC1 (stereo unspecified) | > 50 µM |
| C=CCN1Cc2cccc3c2C(CC1C)C(S)=N3 (stereo unspecified) | > 250 µM |
| CCC(=CCN1Cc2cc(Cl)cc3nc(O)n(c23)CC1C)CC (stereo unspecified) | 0.029 µM |
| CC1Cn2c(S)nc3cccc(c32)CN1CC1CC1 (stereo unspecified) | 0.06 µM |
| CC(C)=CCN1Cc2cc(Cl)cc3nc(NC#N)n(c23)CC1C (stereo unspecified) | > 250 µM |
| C=C(C)CN1Cc2cccc3c2C(O)(CC1C)C(=O)N3 (stereo unspecified) | > 250 µM |
| CCCN1Cc2cccc3c2n(c(=O)n3C)CC1C (stereo unspecified) | > 250 µM |
| CC(C)=CCN1Cc2cc(Cl)cc3[nH]c(=O)n(c23)C[C@H]1C | 4.2 µM |
| CCC(=CCN1Cc2cc(Cl)cc3nc(S)n(c23)CC1C)CC (stereo unspecified) | 0.012 µM |
| CCCN1Cc2cccc3c2n(c(=O)n3C(C)C)CC1C (stereo unspecified) | > 250 µM |
| CCCN1Cc2cccc3c2N(CC1C)C(=O)C3 (stereo unspecified) | > 250 µM |
| CC1Cn2c(O)nc3cccc(c32)CN1CC1CC1 (stereo unspecified) | 10 µM |
| CC(C)=CCN1Cc2cc(Cl)cc3[nH]c(=S)n(c23)C[C@@H]1C | 0.039 µM |
